From patent publication US8741932B2, “Imidazopyridine derivatives” (Piramal Enterprises Limited, priority 2009, dated 2014) come the findings set out here.

pIC50: −log10 of the molar value. Read-outs that look alike come from different tables or passages of the source.

A word on the pIC50: it is the negative decadic logarithm of the IC50, by convention in mol/L. The term inhibition denotes the share of the control response that was lost under treatment. The term IC50 denotes the point on the concentration scale where inhibition reaches its midpoint.

One data set has as its system A2780. The data set is described as follows: Cytotoxicity assay (propidium iodide), A2780. The format is cell-based. The note with it: A2780 (C3a, ovarian), 48 hours.
In data set [1] the test system is PC3.
The subject of a further data set is MDA MB 231. In words: Cytotoxicity assay (propidium iodide), MDA MB 231. It counts as cell-based. The note with it: MDA MB 231 (C6a, breast); 48 hours.
A further data set deals with HT29. In words: Cytotoxicity assay (propidium iodide), HT29. The format is cell-based. The note with it: HT29 (C4a, colon); 48 hours.
A further data set concerns A549. The data set is described as follows: Cytotoxicity assay (propidium iodide), A549. The settings on record: A549 (C1a, lung), 48 hours. The format is cell-based.
The next data set deals with H460. The data set is described as follows: Cytotoxicity assay (propidium iodide), H460. The format is cell-based. The note with it: H460 (C1b, lung), 48 hours.
A further data set has as its system U 373. The data set is described as follows: Cytotoxicity assay (propidium iodide), U 373. It counts as cell-based. The settings on record: Homo sapiens, U373 MG; U 373 (C8a, glioblastoma); 48 hours.
In another data set the test system is STAT3. The data set is described as follows: STAT3 bioassay (Hela Stat3-luc, luciferase). The format is cell-based. The settings on record: Oncostatin M induction. In a few lines:
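Hela Stat3-luc cells (20,000/well, 24 h) pretreated with compound 1 h, then induced with 100 ng/ml final Oncostatin M for 7-8 h at 37 °C. Luciferase luminescence after lysis; percent inhibition versus induction control, IC50 from these percentages.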

In the next data set the test system is HCT116. The data set is described as follows: Cytotoxicity assay (propidium iodide), HCT116. The format is cell-based. The settings on record: Homo sapiens, HCT-116; HCT116 (C4b, colon); 48 hours.
The target of a further data set is T1, mTOR (Homo sapiens, UniProt P42345).
T1 construct: endogenous in cells; host or cells: A2780 ovarian cell line (ATCC)
In words: mTOR activity assay (cell ELISA, Phospho-AKT Ser 473, A2780 cells). The note with it: 1 μM, read-out: % Inhibition of mTOR activity at 1 μM. It counts as cell-based. As for the experimental part: Seed cells (Ovarian cell line A2780, ATCC) were plated in a 96 well microtitre plate at a density of 50,000 cells/cm^2 in appropriate complete cell culture medium. The cells were allowed to adhere for 18-24 hours. The cells were allowed to starve for 24 hours. […] Then the cells were stimulated with 20% FCS for 30 minutes. A typical assay would consist of a set of unstimulated cells, a set of stimulated cells and a set of cells treated with compounds of present invention and a set of cells treated with the stimulator. The medium was discarded. The cells were fixed with 100 μL of 3.7% formaldehyde for 15 minutes. The formaldehyde was discarded by inverting the plate and tapping it on a thick tissue paper layer to remove traces. The cells were washed and permeabilized with 200 μL PBS+Triton-X 100 solution (hereafter referred to as PBS-Triton, containing 0.1% triton-X 100 in 1×PBS) three times, incubating the cells each time for 5 minutes. 100 μL blocking solution (10% FCS in PBS-Triton) was added and incubated for 1 hour at 25° C. The blocking solution was discarded and cells were incubated with the primary antibody in PBS-Triton at a dilution of 1:500 for 1 hour at RT (25° C.). [The primary antibody is Phospho-AKT (Ser 473); Cell Signaling; Cat. No. 9271]. The primary antibody solution was discarded and the cells were washed 3 times with PBS-Triton solution and incubated with the HRP-conjugated secondary antibody in PBS-Triton at a dilution of 1:500 for 1 hour at RT (25° C.). The cells were washed 3 times with PBS-Triton followed by two washes with PBS (to remove traces of triton-X 100). The OPD (o-phenylene diamine dihydrochloride) substrate was prepared for detection of the signal by dissolving one tablet set (two tablets) of SigmaFast OPD (Sigma, Cat No. P9187) in 20 mL distilled water. It should be protected from light. 100 μL OPD solutions was added to the wells and the plate was incubated in the dark for 3-5 minutes (depending upon the development of the color). The reaction was stopped by adding 50 μL 2 N H2SO4. The absorbance was measured at 490 nm. The values were expressed in the treated samples, in terms of percentage or fold decrease in AKT phosphorylation with respect to the induced sample. PI-103 (Calbiochem, USA) was used as a standard.

Data set [2] relates to PC3. The data set is described as follows: Cytotoxicity assay (propidium iodide), PC3. The settings on record: Homo sapiens, PC-3, 48 h, read-out: IC50 cytotoxicity.
The test system of a further data set is U 87 MG. In words: Cytotoxicity assay (propidium iodide), U 87 MG. It counts as cell-based. The settings on record: Homo sapiens; U 87 MG (C8b, glioblastoma); 48 hours.
Another data set addresses T2, PI3Kα kinase (Homo sapiens, UniProt P42336).
T2 construct: purchased Millipore, USA
The data set is described as follows: Kinase assay (PI3Kα). The format is biochemical. The settings on record: read-out: IC50 (μM) for PI3K inhibition. In a few lines:
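Recombinant PI3Kα (20 ng) phosphorylated 12.5 μg phosphatidylinositol with 10 μM ATP and 1 μCi ^32γ P […] in 10 mM Hepes pH 7.5, 50 mM MgCl2 for 20 min at 30° C. Lipids were extracted with MeOH/CHCl3, resolved by TLC, and labelled PI quantified by autoradiography densitometry; PI-103 served as standard.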

The next data set deals with IL-6. The data set is described as follows: Human monocyte assay, LPS-stimulated IL-6. The format is cell-based. The note with it: human monocytes, 1 μg/ml LPS, 5 hours. In a few lines: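 Adherent human PBMC-derived monocytes (2×10^4/well) were cultured 48 h, preincubated 30 min with compound or 0.5% DMSO, then stimulated with 1 μg/ml E. coli LPS for 5 h at 37° C. TNF-α and IL-6 in supernatants were measured by ELISA.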

T2 sequence (P42336 whole entry): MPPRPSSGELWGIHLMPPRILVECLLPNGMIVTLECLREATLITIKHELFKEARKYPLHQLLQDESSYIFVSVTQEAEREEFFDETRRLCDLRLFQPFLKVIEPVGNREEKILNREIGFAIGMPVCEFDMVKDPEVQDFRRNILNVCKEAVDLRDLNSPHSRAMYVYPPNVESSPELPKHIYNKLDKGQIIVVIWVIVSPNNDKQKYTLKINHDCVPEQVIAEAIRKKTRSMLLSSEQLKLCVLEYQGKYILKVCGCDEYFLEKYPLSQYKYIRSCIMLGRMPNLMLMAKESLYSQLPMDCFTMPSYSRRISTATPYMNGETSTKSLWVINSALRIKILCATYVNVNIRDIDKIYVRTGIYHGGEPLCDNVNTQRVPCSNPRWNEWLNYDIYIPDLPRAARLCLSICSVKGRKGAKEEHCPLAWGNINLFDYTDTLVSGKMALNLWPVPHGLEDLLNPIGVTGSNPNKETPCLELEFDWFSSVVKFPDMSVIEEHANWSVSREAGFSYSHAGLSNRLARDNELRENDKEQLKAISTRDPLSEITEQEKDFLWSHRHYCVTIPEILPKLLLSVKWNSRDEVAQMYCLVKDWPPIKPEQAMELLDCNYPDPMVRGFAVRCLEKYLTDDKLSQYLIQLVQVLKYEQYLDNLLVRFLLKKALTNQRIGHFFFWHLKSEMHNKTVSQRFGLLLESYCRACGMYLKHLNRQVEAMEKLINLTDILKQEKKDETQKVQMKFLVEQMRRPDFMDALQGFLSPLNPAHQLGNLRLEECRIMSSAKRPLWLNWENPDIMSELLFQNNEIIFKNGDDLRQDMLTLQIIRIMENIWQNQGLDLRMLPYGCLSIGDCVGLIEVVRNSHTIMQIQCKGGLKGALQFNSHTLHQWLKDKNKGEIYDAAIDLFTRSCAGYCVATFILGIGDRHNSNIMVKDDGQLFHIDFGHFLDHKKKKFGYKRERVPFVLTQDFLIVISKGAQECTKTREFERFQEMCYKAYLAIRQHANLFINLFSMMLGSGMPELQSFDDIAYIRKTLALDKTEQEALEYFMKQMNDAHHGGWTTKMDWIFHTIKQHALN
T2 sequence (P27986 whole entry partner): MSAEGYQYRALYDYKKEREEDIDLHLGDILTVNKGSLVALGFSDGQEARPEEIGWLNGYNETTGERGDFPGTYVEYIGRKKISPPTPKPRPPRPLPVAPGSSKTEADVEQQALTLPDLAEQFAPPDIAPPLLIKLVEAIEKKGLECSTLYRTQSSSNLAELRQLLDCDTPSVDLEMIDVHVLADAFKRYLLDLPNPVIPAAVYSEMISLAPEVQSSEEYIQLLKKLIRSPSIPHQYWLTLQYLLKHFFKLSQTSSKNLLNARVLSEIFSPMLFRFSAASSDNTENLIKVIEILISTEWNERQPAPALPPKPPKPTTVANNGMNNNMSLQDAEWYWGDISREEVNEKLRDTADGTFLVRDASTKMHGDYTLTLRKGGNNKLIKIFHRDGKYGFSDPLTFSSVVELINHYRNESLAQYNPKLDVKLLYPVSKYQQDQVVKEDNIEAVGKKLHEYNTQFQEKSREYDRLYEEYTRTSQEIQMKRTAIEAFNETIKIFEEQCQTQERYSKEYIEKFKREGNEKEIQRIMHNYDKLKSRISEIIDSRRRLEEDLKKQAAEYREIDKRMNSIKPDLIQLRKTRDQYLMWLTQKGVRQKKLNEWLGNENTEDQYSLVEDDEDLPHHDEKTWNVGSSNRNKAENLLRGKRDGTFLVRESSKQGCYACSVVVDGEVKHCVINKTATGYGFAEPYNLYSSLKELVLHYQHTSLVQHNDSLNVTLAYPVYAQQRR
Procedure for H460: (§1) Cells from cell lines as mentioned in the table given below were seeded at a density of 3000 cells/well in a white opaque 96-well plate. Following incubation at 37° C./5% CO2 for a period of 18-24 hours, the cells were treated with various concentrations (stock solution was prepared in DMSO and subsequent dilutions were made in media as per ATCC guidelines) of the representative compounds of present invention (refer table 3) for a period of 48 hours. At the end of treatment, the spent culture medium was discarded, the cells were washed with 1×PBS and 200 μl of 7 μg/ml propidium iodide was added to each well. The plates were frozen at −70° C. for at least 24 hours. For analysis, the plates were brought to RT, allowed to thaw and were read in PolarStar fluorimeter with the fluorescence setting. The percentage of viable cells in the non treated set of wells was considered to be 100 and the percentage viability following treatment was calculated accordingly. IC50 values were calculated from graphs plotted using these percentages.
Procedure for HCT116: as §1
Procedure for HT29: as §1
Procedure for MDA MB 231: as §1
Procedure for U 373: as §1
Procedure for U 87 MG: as §1

As to `Cc1ccc([N+](=O)[O-])cc1S(=O)(=O)N(C)N=Cc1cnc2ccc(-c3ccc(F)nc3)cn12` [Example 83, N′-((6-(6-fluoropyridine-3-yl)imidazo[1,2-a]pyridine-3-yl)methylene)-n, 2-dimethyl-5-nitrobenzenesulfonohydrazide], the pIC50 in the data set with A2780 is 5.30 to 8.00; in the data set on PC3 [1], under 5.30; with MDA MB 231, 5.30 to 8.00; with HT29 it was under 5.30; with A549, under 5.30; in the data set with H460 it was under 5.30.
With `Cc1ccc(S(=O)(=O)N(C)N=Cc2cnc3ccc(-c4cccnc4)cn23)cc1F` [Example 20, 3-Fluoro-N, 4-dimethyl-N′-((6-(pyridine-3-yl)imidazo[1,2-a]pyridine-3-yl)methylene) benzenesulfonohydrazide], the negative logarithm of the IC50 (pIC50) with A2780 (Homo sapiens) is under 5.30; with U 373, under 5.30; in the data set with STAT3 (Homo sapiens) it was 5.30 to 7.00; in the data set with HCT116, under 5.30; in the data set with A549 (Homo sapiens), under 5.30; in the data set with PC3 [2], under 5.30. The pIC50 with U 87 MG was under 5.30; in the data set with H460 (Homo sapiens, NCI-H460), under 5.30. Moreover, the inhibition at 1 µM at mTOR was in the range of 30 to 50%. On PI3Kα kinase, the IC50 lay in the range of 0.01 to 0.5 µM.
Turning to `Cc1cccc(S(=O)(=O)N(C)N=Cc2cnc3ccc(-c4cccnc4)cn23)c1` [Example 2], the pIC50 was 5.30 to 8.00 in the data set on A2780; 5.30 to 8.00 in the data set with PC3 [1]; 5.00 to 5.30 on STAT3; 5.30 to 8.00 in the data set with MDA MB 231; under 5.30 in the data set with HT29; 5.30 to 8.00 with A549. The compound further gave a negative logarithm of the IC50 (pIC50) in the data set with H460 of 5.30 to 8.00. In the data set with IL-6, this compound yielded an IC50 of 0.001 to 5 µM.
Regarding `CN(N=Cc1cnc2ccc(-c3cccnc3)cn12)S(=O)(=O)c1ccc(F)c(C#N)c1` [Example 24, 3-Cyano-4-fluoro-N-methyl-N′-((6-(pyridine-3-yl)imidazo[1,2-a]pyridine-3-yl)methylene) benzenesulfonohydrazide], the pIC50 was 5.30 to 8.00 with A2780 (Homo sapiens); 5.30 to 8.00 with U 373; under 5.00 in the data set on STAT3 (Homo sapiens); under 5.30 in the data set on HCT116; 5.30 to 8.00 in the data set with A549 (Homo sapiens); 5.30 to 8.00 with PC3 [2]. For the same compound, the pIC50 is 5.30 to 8.00 in the data set on U 87 MG and 5.30 to 8.00 with H460 (Homo sapiens, NCI-H460).
